Activity calls are given as the source filed them. The rule behind the calls is not given here.
Tests used:
[1] = target: T1, 5-hydroxytryptamine receptor 1A (Rattus norvegicus, UniProt P19327); assay: Binding affinity towards 5-hydroxytryptamine 1A receptor
T1 sequence (P19327 whole entry): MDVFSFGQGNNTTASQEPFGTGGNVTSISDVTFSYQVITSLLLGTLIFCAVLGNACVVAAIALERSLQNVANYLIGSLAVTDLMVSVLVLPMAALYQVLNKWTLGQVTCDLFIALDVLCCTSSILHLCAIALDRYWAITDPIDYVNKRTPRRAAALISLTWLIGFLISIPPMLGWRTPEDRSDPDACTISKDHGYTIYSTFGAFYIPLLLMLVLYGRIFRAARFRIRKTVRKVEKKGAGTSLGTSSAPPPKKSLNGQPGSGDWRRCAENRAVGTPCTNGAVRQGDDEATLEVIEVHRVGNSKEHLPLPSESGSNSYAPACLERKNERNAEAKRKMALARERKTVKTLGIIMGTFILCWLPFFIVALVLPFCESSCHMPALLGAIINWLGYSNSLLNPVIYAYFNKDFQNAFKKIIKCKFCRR

[2] = target: T2, Serotonin 2 (5-HT2) receptor (Rattus norvegicus, UniProt P30994+P08909+P14842); assay: Binding affinity towards 5-hydroxytryptamine 2 receptor using [3H]- ketanserin as radioligand; type: protein assay
Rattus norvegicus [3] = organism: Rattus norvegicus; assay: The dose at which the animals would show 50% responses on compound-appropriate lever; type: functional
[4] = target: T3, 5-hydroxytryptamine receptor 1B (Rattus norvegicus, UniProt P28564); assay: Evaluated for binding affinity towards 5-hydroxytryptamine 1B receptor
[5] = target: T2, Serotonin 2 (5-HT2) receptor; assay: Binding affinity towards 5-hydroxytryptamine 2 receptor using [3H]- 1-(4-bromo-2,5-dimethoxy-phenyl)-2-aminopropane (D) as radioligand; type: protein assay
Rattus norvegicus [6] = assay: The dose at which the animals would show 50% response on 8-OH-DPAT appropriate lever at a dose 0.2 mg/kg (7/7 no of animals); type: functional
Rattus norvegicus [7] = assay: 8-OH-DPAT appropriate response rate in % at 0.2 mg/kg where stimulus generalization occurred(7/7 no of animals); type: functional
Rattus norvegicus [8] = assay: 8-OH-DPAT appropriate response of animals/min rate in %0.2 mg/Kg where stimulus generalization occurred(7/7 no of animals); type: functional
Rattus norvegicus [9] = assay: DOM appropriate response rate in % at 0.6 mg/Kg where stimulus generalization occurred(5/5 no of animals); type: functional
Rattus norvegicus [10] = assay: DOM appropriate response of animals/min rate in % at 6.0 mg/Kg where stimulus generalization occurred(3/5 no of animals); type: functional
Rattus norvegicus [11] = assay: DOM appropriate response of animals/min rate in % at 2.0 mg/kg where stimulus generalization occurred(4/5 no of animals); type: functional
Rattus norvegicus [12] = assay: 8-OH-DPAT appropriate response rate in % at 0.9 mg/kg where stimulus generalization occurred (4/7 no of animals); type: functional
Rattus norvegicus [13] = organism: Rattus norvegicus; assay: DOM appropriate response rate in % at […] where stimulus generalization occurred(5/5 no of animals); type: functional
Rattus norvegicus [14] = assay: DOM appropriate response rate in % at 5.0 mg/Kg where stimulus generalization occurred(4/5 no of animals); type: functional
Rattus norvegicus [15] = assay: 8-OH-DPAT appropriate response rate in % at 1.0 mg/kg where stimulus generalization occurred(4/5 no of animals); type: functional
Rattus norvegicus [16] = assay: DOM appropriate response of animals/min rate in % at 0.6 mg/Kg where stimulus generalization occurred(5/5 no of animals); type: functional
Rattus norvegicus [17] = assay: 8-OH-DPAT appropriate response of animals/min rate in % 1.0 mg/kg where stimulus generalization occurred(4/5 no of animals); type: functional
Rattus norvegicus [18] = assay: The dose at which the animals would show 50% responses on DOM appropriate lever at a dose 6.0 mg/kg; type: functional
Rattus norvegicus [19] = assay: 8-OH-DPAT appropriate response of animals/min rate in % 0.9 mg/kg where stimulus generalization occurred(4/7 no of animals); type: functional
Rattus norvegicus [20] = assay: 8-OH-DPAT appropriate response of animals/min rate in % 1.1 mg/kg where stimulus generalization occurred(4/5 no of animals); type: functional
Rattus norvegicus [21] = organism: Rattus norvegicus; assay: 8-OH-DPAT appropriate response rate in % at […] where stimulus generalization occurred(2/5 no of animals); No responding; type: functional, organism-based; set-up: dose 1.2 mg/kg
Rattus norvegicus [22] = assay: 8-OH-DPAT appropriate response rate in % at 0.4 mg/kg where stimulus generalization occurred(4/5 no of animals); type: functional
Rattus norvegicus [23] = assay: DOM appropriate response rate in % at 6.0 mg/Kg where stimulus generalization occurred(3/5 no of animals); type: functional
Rattus norvegicus [24] = assay: 8-OH-DPAT appropriate response of animals/min rate in % 0.4 mg/kg where stimulus generalization occurred(4/5 no of animals); type: functional
Rattus norvegicus [25] = assay: DOM appropriate response of animals/min rate in % at 5.0 mg/Kg where stimulus generalization occurred(4/5 no of animals); type: functional
Rattus norvegicus [26] = assay: 8-OH-DPAT appropriate response of animals/min rate in % 0.8 mg/kg where stimulus generalization occurred(3/4 no of animals); type: functional
Rattus norvegicus [27] = organism: Rattus norvegicus; assay: DOM appropriate response of animals/min rate in % at […] where stimulus generalization occurred(5/5 no of animals); type: functional
Rattus norvegicus [28] = assay: DOM appropriate response rate in % at 2.0 mg/Kg where stimulus generalization occurred(4/5 no of animals); type: functional
Rattus norvegicus [29] = assay: 8-OH-DPAT appropriate response rate in % at 1.1 mg/kg where stimulus generalization occurred(4/5 no of animals); type: functional
Rattus norvegicus [30] = assay: 8-OH-DPAT appropriate response rate in % at 0.8 mg/kg where stimulus generalization occurred(3/4 no of animals); type: functional
Rattus norvegicus [31] = organism: Rattus norvegicus; assay: The dose at which the animals show 50% responses on drug-appropriate lever; type: functional
Rattus norvegicus [32] = assay: DOM appropriate response of animals/min at 1.0 mg/kg where stimulus generalization occurred (5/5 no of animals); type: functional
[33] = target: T1, 5-hydroxytryptamine receptor 1A; assay: Binding affinity against 5-hydroxytryptamine 1A receptor in rat hippocampal tissue; type: tissue-based, Hippocampus
[34] = target: T3, 5-hydroxytryptamine receptor 1B; assay: Binding affinity against 5-HT1B serotonin receptor in rat striatum; type: tissue-based
Rattus norvegicus [35] = assay: DOM appropriate response rate in % at 1.0 mg/kg where stimulus generalization occurred (5/5 no of animals); type: functional

T3 sequence (P28564 whole entry): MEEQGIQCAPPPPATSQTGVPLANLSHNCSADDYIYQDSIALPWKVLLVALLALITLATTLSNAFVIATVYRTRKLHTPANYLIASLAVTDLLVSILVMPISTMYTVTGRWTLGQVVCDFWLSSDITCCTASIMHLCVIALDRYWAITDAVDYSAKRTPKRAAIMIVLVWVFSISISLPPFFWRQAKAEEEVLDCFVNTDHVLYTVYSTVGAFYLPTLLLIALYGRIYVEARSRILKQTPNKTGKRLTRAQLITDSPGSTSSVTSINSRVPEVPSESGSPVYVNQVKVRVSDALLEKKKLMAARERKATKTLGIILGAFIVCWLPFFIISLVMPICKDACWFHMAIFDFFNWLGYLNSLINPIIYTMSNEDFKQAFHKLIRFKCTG

For `CCCN(CCC)C1CCc2cccc(OC)c2C1` (configuration not stated), the Ki [1] was 1.3 nM, the Ki [2] was 3050 nM and the ED50 (Rattus norvegicus [3]) was 0.22 mg/kg. It also gave a Ki [4] of over 1000 nM and a Ki [5] of 280 nM.
Work on `CCCN(CCC)C1CCc2cccc(O)c2C1` (configuration not stated) [8-OH-DPAT] yielded an ED50 (Rattus norvegicus [6]) of 0.08 mg/kg, a Ki [2] of 5350 nM and a Ki [5] of 635 nM. The Responding (Rattus norvegicus [7]) was 88% and the Response (Rattus norvegicus [8]) was 16.8.
For `CCCN(CCC)CCc1c[nH]c2ccc(OC)cc12`, the Responding (Rattus norvegicus [9]) was 21%, the Ki [1] was 4 nM and the Response (Rattus norvegicus [10]) was 5.2. It also gave a Response (Rattus norvegicus [11]) of 12, a Responding (Rattus norvegicus [12]) of 56% and a Ki [2] of 655 nM. The Ki [4] was 1800 nM, the Responding (Rattus norvegicus [13]) was 49% and the Responding (Rattus norvegicus [14]) was 74%. The Ki [5] was 7.1 nM, the Responding (Rattus norvegicus [15]) was 67% and the Response (Rattus norvegicus [16]) was 10.2. For the same compound, the Response (Rattus norvegicus [17]) was 5.6, the ED50 (Rattus norvegicus [18]) was 1.68 mg/kg and the Response (Rattus norvegicus [19]) was 13.6. The Response (Rattus norvegicus [20]) was 4.1, the Responding (Rattus norvegicus [21]) was “inactive” and the Responding (Rattus norvegicus [22]) was 15%. For the same compound, the Responding (Rattus norvegicus [23]) was 91%, the Response (Rattus norvegicus [24]) was 13.6 and the Response (Rattus norvegicus [25]) was 10.3. The Response (Rattus norvegicus [26]) was 9.2, the Response (Rattus norvegicus [27]) was 12.3 and the Responding (Rattus norvegicus [28]) was 51%. It also gave a Responding (Rattus norvegicus [29]) of 81% and a Responding (Rattus norvegicus [30]) of 56%.
Work on `CCCN(CCC)CCc1c[nH]c2ccc(O)cc12` yielded a Ki [1] of 7.1 nM, a Ki [2] of 450 nM and a Ki [4] of 4300 nM. The Ki [5] was 1 nM.
`COc1ccc2[nH]cc(CCN(C)C)c2c1` [MEBUFOTENIN] gave a Ki [1] of 7.8 nM, a Ki [4] of 350 nM and an ED50 (Rattus norvegicus [31]) of 1.43 mg/kg.
Compound `COc1cc(CC(C)N)c(OC)cc1C` (configuration not stated) [DOM] has a Response (Rattus norvegicus [32]) of 12.8, a Ki [33] of 5120 nM and a Ki [34] of 2070 nM. It also gave a Responding (Rattus norvegicus [35]) of 92%.

Source: ChEMBL document CHEMBL1124092 (J Med Chem, 1988)
